Here are results for two compounds from ChEMBL document CHEMBL2074343 (Pharm Res, 2004).

Common to all, as to type: functional, cell-based
Data set [1] addresses T1, ATP-dependent translocase ABCB1 (Homo sapiens, UniProt P08183). Briefly: TP_TRANSPORTER: transepithelial transport of vinblastine in the presence of Atrovastatin at 50uM in KBV1 cells. The conditions noted are these: kbv1, 50 µM.
In data set [2] the target is T1, ATP-dependent translocase ABCB1. The experiment in a line: TP_TRANSPORTER: transepithelial transport in L-MDR1 cells. The conditions noted are these: pig.
Data set [3] has the same target. The experiment in a line: TP_TRANSPORTER: transepithelial transport of vinblastine in the presence of Simvastatin acid at 50uM in L-MDR1 cells. As to conditions: pig, l-mdr1, 50 µM.

The structures appear in SMILES notation.

T1 sequence (P08183 whole entry): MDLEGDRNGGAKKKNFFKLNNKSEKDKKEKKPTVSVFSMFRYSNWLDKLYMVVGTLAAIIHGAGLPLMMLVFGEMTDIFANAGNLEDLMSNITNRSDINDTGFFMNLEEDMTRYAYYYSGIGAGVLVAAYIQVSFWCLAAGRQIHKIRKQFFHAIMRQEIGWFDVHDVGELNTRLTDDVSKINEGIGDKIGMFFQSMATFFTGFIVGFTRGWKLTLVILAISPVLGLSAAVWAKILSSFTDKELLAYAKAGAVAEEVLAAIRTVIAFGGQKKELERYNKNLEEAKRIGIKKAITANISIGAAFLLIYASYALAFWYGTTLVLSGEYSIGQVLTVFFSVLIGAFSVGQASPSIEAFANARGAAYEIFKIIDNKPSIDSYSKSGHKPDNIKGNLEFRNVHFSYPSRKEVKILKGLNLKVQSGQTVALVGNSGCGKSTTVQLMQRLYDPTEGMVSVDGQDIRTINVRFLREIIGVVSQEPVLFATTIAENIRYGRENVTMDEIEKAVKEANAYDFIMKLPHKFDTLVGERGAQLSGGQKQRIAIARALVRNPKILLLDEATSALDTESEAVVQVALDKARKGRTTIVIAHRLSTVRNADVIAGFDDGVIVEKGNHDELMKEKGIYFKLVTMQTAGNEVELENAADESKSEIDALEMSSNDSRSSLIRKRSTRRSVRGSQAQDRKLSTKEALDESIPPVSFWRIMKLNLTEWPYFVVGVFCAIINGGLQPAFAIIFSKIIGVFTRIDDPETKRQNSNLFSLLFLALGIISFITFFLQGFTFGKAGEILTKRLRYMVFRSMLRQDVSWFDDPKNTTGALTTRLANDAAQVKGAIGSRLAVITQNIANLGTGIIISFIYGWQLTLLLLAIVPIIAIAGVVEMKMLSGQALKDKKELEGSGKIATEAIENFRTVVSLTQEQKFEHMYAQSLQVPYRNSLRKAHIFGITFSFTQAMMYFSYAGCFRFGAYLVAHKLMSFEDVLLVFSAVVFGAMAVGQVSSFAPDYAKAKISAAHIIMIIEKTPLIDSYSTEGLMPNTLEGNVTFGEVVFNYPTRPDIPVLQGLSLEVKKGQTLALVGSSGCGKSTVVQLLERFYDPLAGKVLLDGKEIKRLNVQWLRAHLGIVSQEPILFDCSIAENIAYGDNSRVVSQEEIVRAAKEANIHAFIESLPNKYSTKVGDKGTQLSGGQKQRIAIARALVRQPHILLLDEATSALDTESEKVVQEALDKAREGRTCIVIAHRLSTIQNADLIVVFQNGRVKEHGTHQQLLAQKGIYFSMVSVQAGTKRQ

For `CC(C)c1c(C(=O)Nc2ccccc2)c(-c2ccccc2)c(-c2ccc(F)cc2)n1CC[C@@H](O)C[C@@H](O)CC(=O)O` [ATORVASTATIN], the values for the Activity result in data set [1] and in data set [2] were “is not an inhibitor [-]” and “substrate [+]”, respectively.
Regarding `CCC(C)(C)C(=O)O[C@H]1C[C@@H](C)C=C2C=C[C@H](C)[C@H](CC[C@@H](O)C[C@@H](O)CC(=O)O)[C@H]21` [TENIVASTATIN], the Activity result in data set [3] was “is not an inhibitor [-]”; in data set [2] it was “substrate [+]”.
